Data on 55 compounds can be found in PubChem BioAssay AID743399 (Broad Institute, 2014).

Results filed as inconclusive are left out. The source made the active and inactive calls.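 How the source made its calls: active means compounds lowering the signal whose fitted AC50 is no more than twice their top tested dose; inconclusive means flat curve with activity from -70 to -30%, or bad fit; inactive means the rest.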

The test system of the first test is Huh7 psiCHECK-miR122 Renilla luciferase reporter, 48 h. Briefly: miR-122 activators in Huh7 reporter cells, dose response, miR-122 modulator project, cell-based, psiCHECK-miR122, dry powder (AID 743399).
Details: not given
For `OCc1ccc(-c2nn(Cc3ccccc3)c3ccccc23)o1`, the AC50 is 0.449 µM.
With `CCn1cc(C(=O)O)c(=O)c2cc(F)c(N3CCNCC3)nc21`, the AC50 is > 70 µM (inactive).
Regarding `CCCC#Cc1ccc2c(c1)O[C@H](CN(C)C(=O)c1ccncc1)[C@H](C)CN([C@@H](C)CO)S2(=O)=O`, the AC50 was 12.8 µM.
The same measure, in the same setting: the figure for `C[C@@H]1CN([C@@H](C)CO)S(=O)(=O)c2ccc(C#Cc3ccncc3)cc2O[C@@H]1CN(C)C(=O)C1CCOCC1` is 0.838 µM.
On the same count and under the same terms, the figure for `Cc1cccc(NC(=O)Nc2ccc3c(c2)C(=O)N(C)[C@@H]2CC[C@H](CC(=O)NCc4ccccc4Cl)O[C@H]2CO3)c1` is 22.2 µM; for `Nc1ccc(Oc2ccc(Cl)cc2)cc1` it is 3.4 µM.
Still for that read-out and setting: the figure for `CCCC#Cc1ccc2c(c1)O[C@H](CN(C)C(=O)COC)[C@H](C)CN([C@@H](C)CO)S2(=O)=O` is 1.1 µM; for `C[C@@H]1CN([C@H](C)CO)S(=O)(=O)c2ccc(/C=C/c3ccccc3)cc2O[C@@H]1CN(C)C(=O)c1cccnc1` it is 7.29 µM.
Turning to `Nc1ccc(Oc2ccc(Br)cc2)cc1`, the AC50 is 1.09 µM.
Still for that read-out and setting: then `C[C@H]1CN([C@@H](C)CO)S(=O)(=O)c2ccc(C#Cc3ccncc3)cc2O[C@@H]1CN(C)C(=O)C1CCOCC1`, with 9.44 µM.
The same measure, in the same setting: the figure for `C[C@H](CO)N1C[C@H](C)[C@@H](CN(C)C(=O)C2CCOCC2)Oc2cc(C#Cc3ccncc3)ccc2S1(=O)=O` is 5.46 µM; for `C[C@H]1CN([C@@H](C)CO)C(=O)c2cc(-c3ccc(C#N)cc3)cnc2O[C@H]1CN(C)C(=O)Nc1ccc(C(F)(F)F)cc1` it is 6.96 µM.
Same read-out and setting: then `C[C@@H]1CN([C@H](C)CO)S(=O)(=O)c2ccc(C#Cc3ccncc3)cc2O[C@@H]1CN(C)C(=O)C1CCOCC1`, with 0.896 µM; and `CO[C@@H]1CN(C)C(=O)c2cc(NC(=O)c3cccc(Oc4ccccc4)c3)ccc2OC[C@H](C)NC[C@@H]1C`, with 7.62 µM.
As for `O=C(c1ccc(CNc2c(NC3CCCCC3)c(=O)c2=O)cc1)N1CCc2ccccc21`, the AC50 was 1.18 µM.
Still for that read-out and setting: then `C[C@H]1CN([C@@H](C)CO)S(=O)(=O)c2ccc(C#Cc3ccncc3)cc2O[C@H]1CN(C)C(=O)C1CCOCC1`, with 20.7 µM.
Still for that read-out and setting: the figure for `COCC(=O)N(C)C[C@H]1Oc2cc(C#Cc3cccnc3)ccc2S(=O)(=O)N([C@H](C)CO)C[C@H]1C` is below 0.26 µM.
Still for that read-out and setting: the figure for `COCC(=O)N(C)C[C@H]1Oc2cc(-c3ccc(C#N)cc3)ccc2S(=O)(=O)N([C@@H](C)CO)C[C@H]1C` is 0.341 µM.
Turning to `COCC(=O)N(C)C[C@H]1Oc2cc(C#Cc3cccnc3)ccc2S(=O)(=O)N([C@@H](C)CO)C[C@H]1C`, the AC50 is 0.354 µM.
`COc1cccc(-c2ccc3c(c2)O[C@H](CN(C)C(=O)C2CCOCC2)[C@H](C)CN([C@@H](C)CO)S3(=O)=O)c1`: the AC50 is 4.07 µM.
On the same count and under the same terms, the figure for `CNC[C@@H]1Oc2cc(C#CC3CCCCC3)ccc2S(=O)(=O)N([C@@H](C)CO)C[C@@H]1C` is 14.4 µM.
On to `O=C(CNCCC1=CCCCC1)Nc1ccccc1N1CCCCCC1`, for which the AC50 is 16.3 µM.
For the compound `COCC(=O)N(C)C[C@H]1Oc2cc(-c3ccccc3F)ccc2S(=O)(=O)N([C@H](C)CO)C[C@H]1C`, the AC50 is below 0.26 µM.
Still for that read-out and setting: then `Cc1cc(C(C)(C)C)cc(S(=O)(=O)NCCc2ccncc2)c1C`, with 2.34 µM.
The same measure, in the same setting: then `CN(C)CCN1C(=O)c2cccc3cc(N)cc(c23)C1=O`, with 10.7 µM; and `COCC(=O)N(C)C[C@H]1Oc2cc(-c3ccccc3F)ccc2S(=O)(=O)N([C@@H](C)CO)C[C@H]1C`, with 0.278 µM.
On the same count and under the same terms, the figure for `CN1C(=O)c2cc(NC(=O)c3cccc(F)c3)ccc2OC[C@@H]2O[C@@H](CC(=O)O)CC[C@H]21` is > 60 µM (inactive); for `COCC(=O)N(C)C[C@H]1Oc2cc(-c3ccc(C#N)cc3)ccc2S(=O)(=O)N([C@H](C)CO)C[C@H]1C` it is 0.324 µM; for `C[C@H]1CN([C@@H](C)CO)C(=O)c2cc(C#Cc3ccccc3F)cnc2O[C@H]1CN(C)C(=O)C1CCCCC1` it is 20.6 µM.
With `COc1ccc(S(=O)(=O)N(C)C[C@@H]2Oc3ncc(/C=C/c4ccccc4)cc3C(=O)N([C@@H](C)CO)C[C@@H]2C)cc1`, the AC50 is 22.1 µM.
Same read-out and setting: then `C[C@@H]1CN([C@H](C)CO)S(=O)(=O)c2ccc(C#Cc3ccncc3)cc2O[C@H]1CN(C)C(=O)C1CCOCC1`, with 0.496 µM.

Test system in the next test: not listed separately
The test is described as above. The conditions noted are these: Huh7 psiCHECK-miR122 Renilla luciferase reporter, 48 h; at 35 µM (top of the series).
In the case of `CN1C(=O)c2cc(NC(=O)c3cccc(F)c3)ccc2OC[C@H]2O[C@H](CC(=O)O)CC[C@H]21`, the activity change, negative = miR122 activation is -17.4% (inactive).
The same measure, in the same setting: the figure for `O=C(Nc1ccc(-c2nc3ccccc3o2)cc1)c1cc(-n2cnnc2)ccc1Cl` is 0% (inactive); for `C[C@H]1CN([C@@H](C)CO)C(=O)c2cc(-c3ccc(C#N)cc3)cnc2O[C@H]1CN(C)Cc1cncnc1` it is -10.9% (inactive).
With `O=C(NCc1ccccc1Cl)c1ccc(CNc2c(NC3CCCCC3)c(=O)c2=O)cc1`, the activity change, negative = miR122 activation was -30.8% (inactive).
Consider `CO[C@@H]1CN(C)C(=O)c2cc(NS(=O)(=O)c3ccc(Oc4ccccc4)cc3)ccc2OC[C@H](C)NC[C@@H]1C`, for which the activity change, negative = miR122 activation is 8.7% (inactive).
In the case of `C[C@H]1CN([C@@H](C)CO)C(=O)c2cc(-c3ccc(C#N)cc3)cnc2O[C@H]1CN(C)C(=O)c1ccccc1`, the activity change, negative = miR122 activation was 10.9% (inactive).
Same read-out and setting: the figure for `CN1C(=O)c2cc(NC(=O)c3cccc(F)c3)ccc2OC[C@H]2O[C@@H](CC(=O)O)CC[C@@H]21` is 20.2% (inactive).
On the same count and under the same terms, the figure for `CCOC(=O)N1CCC(NC(=O)c2ccc3c(c2)sc2nc(-c4ccccc4)cn23)CC1` is -23.1% (inactive); for `CN1C(=O)c2cc(NC(=O)c3cccc(F)c3)ccc2OC[C@H]2O[C@@H](CC(=O)O)CC[C@H]21` it is 52.2% (inactive).
Turning to `Cc1cc(C(C)(C)C)cc(S(=O)(=O)N2CCOCC2)c1C`, the activity change, negative = miR122 activation was 92.3% (inactive).
Same read-out and setting: the figure for `CN1C(=O)c2cc(NC(=O)c3cccc(F)c3)ccc2OC[C@@H]2O[C@@H](CC(=O)O)CC[C@@H]21` is -10.9% (inactive).
Same read-out and setting: the figure for `CN1C(=O)c2cc(NC(=O)c3cccc(F)c3)ccc2OC[C@@H]2O[C@H](CC(=O)O)CC[C@@H]21` is -15.2% (inactive); for `CO[C@@H]1CN(C)C(=O)c2cc(NC(=O)c3ccc4c(c3)OCO4)ccc2OC[C@H](C)NC[C@@H]1C` it is -21.7% (inactive).
Same read-out and setting: the figure for `O=C(CN=C1NS(=O)(=O)c2ccccc21)Nc1ccccc1N1CCCCCC1` is -23.1% (inactive); for `CN1C(=O)c2cc(NC(=O)c3cccc(F)c3)ccc2OC[C@@H]2O[C@H](CC(=O)O)CC[C@H]21` it is -41.3% (inactive).
For `O=C(c1ccc(CN2CCOCC2)cc1)N1CCc2ccccc21`, the activity change, negative = miR122 activation is 15.4% (inactive).
As to `COCC(=O)N(C)C[C@@H]1Oc2ncc(-c3ccc(C#N)cc3)cc2C(=O)N([C@@H](C)CO)C[C@@H]1C`, the activity change, negative = miR122 activation was -4.35% (inactive).
Take `Cn1c(=O)c(=O)n(C)c2cc(S(=O)(=O)N3CCOCC3)ccc21`: the activity change, negative = miR122 activation was 0% (inactive).
Take `C/C=C/c1cnc2c(c1)C(=O)N([C@@H](C)CO)C[C@H](C)[C@H](CN(C)S(=O)(=O)c1ccc(OC)cc1)O2`: the activity change, negative = miR122 activation was 26.1% (inactive).
With `CN1C(=O)c2cc(NC(=O)c3cccc(F)c3)ccc2OC[C@H]2O[C@H](CC(=O)O)CC[C@@H]21`, the activity change, negative = miR122 activation is -21.7% (inactive).
Still for that read-out and setting: then `O=S(=O)(NCCc1ccncc1)c1ccccc1`, with 515% (inactive).
As for `CCOC(=O)N1CCC(NC(=O)c2ccc3nc(N4CCC(C)CC4)sc3c2)CC1`, the activity change, negative = miR122 activation was 53.8% (inactive).
On to `CCCCN(CCCC)C(=O)CN(C)S(=O)(=O)c1ccc2c(c1)n(C)c(=O)c(=O)n2C`, for which the activity change, negative = miR122 activation was 46.2% (inactive).
The same measure, in the same setting: the figure for `COc1cccc(C(=O)Nc2ccc3c(c2)C(=O)N(C)C[C@@H](OC)[C@@H](C)CN[C@@H](C)CO3)c1` is 4.35% (inactive).
